Assays:
[1] = molecular target: T1, hNK2 receptor (Homo sapiens, UniProt P21452); test: Antagonistic activity determined by intracellular calcium concentration using neurokinin A and hNK2 receptor-expressing CHO cell (FLIPR); format: cell-based; details: neurokinin A stimulation; for inhibition at 10 µM / inhibition at 1 µM / inhibition at 0.1 µM / inhibition at 0.01 µM: CHO, read-out: Antagonistic activity (inhibitory rate (%))
T1 construct: host or cells: CHO cells
T1 sequence (P21452 1-398): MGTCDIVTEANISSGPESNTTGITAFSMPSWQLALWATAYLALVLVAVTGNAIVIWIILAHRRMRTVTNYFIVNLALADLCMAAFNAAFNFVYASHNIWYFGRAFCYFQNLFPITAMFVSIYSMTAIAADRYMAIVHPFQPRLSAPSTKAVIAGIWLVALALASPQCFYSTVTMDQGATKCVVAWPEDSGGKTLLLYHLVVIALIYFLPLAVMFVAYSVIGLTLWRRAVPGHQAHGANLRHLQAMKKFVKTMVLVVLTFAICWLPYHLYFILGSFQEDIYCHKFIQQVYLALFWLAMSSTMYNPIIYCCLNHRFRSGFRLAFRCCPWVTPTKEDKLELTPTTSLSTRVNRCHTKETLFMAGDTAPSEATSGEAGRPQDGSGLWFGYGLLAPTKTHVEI
Method: Evaluation of Antagonistic Activity Determined by Intracellular Calcium Concentration Using Test Compound, Neurokinin A and hNK2 Receptor-Expressing CHO Cell
hNK2 receptor-expressing CHO cells were seeded on a 384 well plate at 7.5×10^3 cells/well and cultured for 24 hr. Then the medium was removed, 1× recording medium (30 μL, Calcium kit II-Fluo 4: DOJINDO LABORATORIES, Japan) containing prepared 2.5 μg/mL Fluo 4, 2.5 mM probenecid and 20 mM HEPES was added, and the cells were cultured in CO2 incubator (37° C., 5% CO2) for 1 hr. A test compound diluted with 1× recording medium containing 0.05% bovine serum albumin and 20 mM HEPES (10 μL, 0.6% dimethyl sulfoxide) was added. Thereafter, 3 nM neurokinin A solution (20 μL) was added, and changes in the intracellular calcium concentration were measured by FLIPR (Molecular Devices Corporation, Japan). The inhibitory rate of the test compound was calculated with a reaction using DMSO alone and free of the compound as […] and a reaction using 1 nM NKA as 0% inhibition.

[2] = molecular target: T1, hNK2 receptor; test: Radioligand receptor binding inhibitory activity using membrane fraction of hNK2 receptor-expressing CHO cell ([125I]-NKA); details: for inhibition at 1 µM / inhibition at 0.1 µM / inhibition at 0.01 µM / inhibition at 10 µM: read-out: hNK2 receptor binding inhibitory activity (inhibitory rate (%)); for inhibition at 10 µM: test compound 10^−5 M
Method: Radioligand Receptor Binding Inhibitory Activity Using Membrane Fraction of hNK2 Receptor-Expressing CHO Cell
hNK2 receptor-expressing CHO cells (produced by EUROSCREEN) were cultured in a flask placed HAM-F12 medium containing 400 μg/mL Geneticin, 100 U/mL penicillin, 100 μg/mL streptomycin and 10% inactivated serum. The medium was removed and adhered cells were washed with PBS, and PBS containing 5 mM EDTA was added to detach the cells from the flask. The cells were recovered by centrifugation, suspended in suspending buffer A (15 mM Tris-HCl (pH 7.5), 12.5 mM MgCl2, 0.3 mM EDTA, 1 mM EGTA (Ethylene Glycol Bis(beta-aminoethylether)-N,N,N,N-tetraacetic Acid)), disrupted by POLYTRON homogenizer (manufactured by KINEMATICA) and centrifuged at 850×g for 10 min at 4° C. The supernatant was recovered and ultracentrifuged at 142000×g for 60 min at 4° C. The precipitated fraction was suspended in suspending buffer B (7.5 mM Tris-HCl (pH 7.5), 12.5 mM MgCl2, 0.3 mM EDTA, 1 mM EGTA, 250 mM sucrose), and cryopreserved (at −80° C.) as a membrane fraction preparation of hNK2 receptor-expressing CHO cell.
The radioligand receptor binding assay was performed in a 96 well microassay plate format with a final volume of 200 μL.
An assay buffer (50 μL, 50 mM Tris-HCl (pH 7.4), 0.02% bovine serum albumin, 2 μg/mL chymostatin, 40 μg/mL bacitracin, 40 μg/mL APMSF, 3 mM MnCl2) was added to a 96 well microassay plate. Thereto was added 50 μL of the above-mentioned cryopreserved membrane fraction preparation suspended in the assay buffer (20 μg/mL). An assay buffer (50 μL) containing 2% dimethyl sulfoxide was added to examine the total binding, 4 μM unlabeled NKA (produced by Peptide Institute, Inc.) solution (50 μL) diluted with an assay buffer containing 2% dimethyl sulfoxide was added to examine non-specific binding, and a test compound diluted with an assay buffer (50 μL, containing 2% dimethyl sulfoxide) was added. Furthermore, […] [^125I]-NKA (produced by NEN) solution (50 μL) was added to each well.
After reaction at room temperature for 30 min, using a cell harvester (manufactured by PerkinElmer), the reaction was stopped by rapid filtration on a unifilter plate (GF/C) (manufactured by PerkinElmer), which had been immersed in 0.3% aqueous polyethyleneimine solution for one day, and the cells were washed 10 times with 50 mM Tris-HCl (pH 7.4) buffer (250 μL) containing 0.02% bovine serum albumin. The GF/C filter plate was dried and 20 μL of MicroScinti-0 (manufactured by PerkinElmer) was added to each well and the radioactivity was measured by TopCount (manufactured by PerkinElmer).
Specific binding is shown by the value obtained by subtracting non-specific binding from the total binding. The binding inhibitory activity of the test compound is shown by the ratio of the value obtained by subtracting the measured value associated with the addition of the test compound from the total binding, to the value of the specific binding.

Row | SMILES | inhibition at 10 µM ([1]; test compound 10^−5 M) [%] | inhibition at 1 µM ([1]; test compound 10^−6 M) [%] | inhibition at 0.1 µM ([1]; test compound 10^−7 M) [%] | inhibition at 0.01 µM ([1]; test compound 10^−8 M) [%] | hNK2 receptor binding inhibitory activity (inhibitory rate (%)) ([2]; test compound 10^−6 M) [%] | hNK2 receptor binding inhibitory activity (inhibitory rate (%)) ([2]; test compound 10^−7 M) [%] | hNK2 receptor binding inhibitory activity (inhibitory rate (%)) ([2]; test compound 10^−8 M) [%] | Antagonistic activity (inhibitory rate (%)) ([1]; test compound 10^−5 M) [%] | Antagonistic activity (inhibitory rate (%)) ([1]; test compound 10^−6 M) [%] | Antagonistic activity (inhibitory rate (%)) ([1]; test compound 10^−7 M) [%] | Antagonistic activity (inhibitory rate (%)) ([1]; test compound 10^−8 M) [%] | hNK2 receptor binding inhibitory activity (inhibitory rate (%)) ([2]; test compound 10^−6 M, hydrochloride) [%] | hNK2 receptor binding inhibitory activity (inhibitory rate (%)) ([2]; test compound 10^−8 M, hydrochloride) [%] | inhibition at 1 µM ([2]; test compound 10^−6 M) [%] | inhibition at 0.1 µM ([2]; test compound 10^−7 M) [%] | inhibition at 0.01 µM ([2]; test compound 10^−8 M) [%] | inhibition at 10 µM [2] [%]
1 | Br.Cc1ccn(-c2ccc(C(=O)N[C@@H]3CCC(F)(F)C[C@@H]3C(=O)N3CCc4c(-c5ncc[nH]5)nc5ccccc5c43)cc2)n1 [Example 2, N-[(1R,2S)-4,4-difluoro-2-{[4-(1H-imidazol-2-yl)-2,3-dihydro-1H-pyrrolo[3,2-c]quinolin-1-yl]carbonyl}cyclohexyl]-4-(3-methyl-1H-pyrazol-1-yl)benzamide hydrobromide] | – | – | – | – | 100.7 | 99.7 | 99.6 | 88.8 | 102.2 | 102.8 | 100.4 | – | – | – | – | – | –
2 | Cc1ccn(-c2ccc(C(=O)N[C@@H]3CCC(F)(F)C[C@@H]3C(=O)N3CCc4c(-c5nccn5COC(=O)C(C)(C)C)nc5ccccc5c43)cc2)n1 [Example 4, [2-(1-{[(1S,2R)-5,5-difluoro-2-({[4-(3-methyl-1H-pyrazol-1-yl)phenyl]carbonyl}amino)cyclohexyl]carbonyl)-2,3-dihydro-1H-pyrrolo[3,2-c]quinolin-4-yl)-1H-imidazol-1-yl]methyl 2,2-dimethylpropanoate] | 91 | 98.7 | 39.5 | -6.8 | – | – | – | – | – | – | – | – | – | 80.1 | 31.6 | -7.5 | –
3 | Cc1ccn(-c2ccc(C(=O)N[C@@H]3CCC(F)(F)C[C@@H]3C(=O)N3CCc4c(-c5ncc[nH]5)nc5ccc(F)cc5c43)cc2)n1 [Example 5, N-[(1R,2S)-4,4-difluoro-2-{[8-fluoro-4-(1H-imidazol-2-yl)-2,3-dihydro-1H-pyrrolo[3,2-c]quinolin-1-yl]carbonyl}cyclohexyl]-4-(3-methyl-1H-pyrazol-1-yl)benzamide] | 87.1 | 100 | 102 | 100 | 100.8 | 99.8 | 96.6 | – | – | – | – | – | – | – | – | – | –
4 | Cc1ccn(-c2ccc(C(=O)N[C@@H]3CCC(F)(F)C[C@@H]3C(=O)N3CCc4c(-c5ccsc5)nc5ccccc5c43)cc2)n1 [Example 7, N-[(1R,2S)-4,4-difluoro-2-{(4-thiophen-3-yl-2,3-dihydro-1H-pyrrolo[3,2-c]quinolin-1-yl)carbonyl]cyclohexyl}-4-(3-methyl-1H-pyrazol-1-yl)benzamide] | 83.7 | 99.3 | 100 | 98.6 | – | – | – | – | – | – | – | – | – | 100 | 100 | 98.8 | 102
5 | Cc1ccn(-c2ccc(C(=O)N[C@@H]3CCC(F)(F)C[C@@H]3C(=O)N3CCc4c(-c5ccccc5)nc5ccc(F)cc5c43)cc2)n1 [Example 9, N-{(1R,2S)-4,4-difluoro-2-[(8-fluoro-4-phenyl-2,3-dihydro-1H-pyrrolo[3,2-c]quinolin-1-yl)carbonyl]cyclohexyl}-4-(3-methyl-1H-pyrazol-1-yl)benzamide] | 84.1 | 96.7 | 100 | 81.9 | – | – | – | – | – | – | – | – | – | 101 | 99.9 | 93.8 | 99.1

Next, values leading:

Row | inhibition at 10 µM ([1]; test compound 10^−5 M) [%] | inhibition at 1 µM ([1]; test compound 10^−6 M) [%] | inhibition at 0.1 µM ([1]; test compound 10^−7 M) [%] | inhibition at 0.01 µM ([1]; test compound 10^−8 M) [%] | hNK2 receptor binding inhibitory activity (inhibitory rate (%)) ([2]; test compound 10^−6 M) [%] | hNK2 receptor binding inhibitory activity (inhibitory rate (%)) ([2]; test compound 10^−7 M) [%] | hNK2 receptor binding inhibitory activity (inhibitory rate (%)) ([2]; test compound 10^−8 M) [%] | Antagonistic activity (inhibitory rate (%)) ([1]; test compound 10^−5 M) [%] | Antagonistic activity (inhibitory rate (%)) ([1]; test compound 10^−6 M) [%] | Antagonistic activity (inhibitory rate (%)) ([1]; test compound 10^−7 M) [%] | Antagonistic activity (inhibitory rate (%)) ([1]; test compound 10^−8 M) [%] | hNK2 receptor binding inhibitory activity (inhibitory rate (%)) ([2]; test compound 10^−6 M, hydrochloride) [%] | hNK2 receptor binding inhibitory activity (inhibitory rate (%)) ([2]; test compound 10^−8 M, hydrochloride) [%] | inhibition at 1 µM ([2]; test compound 10^−6 M) [%] | inhibition at 0.1 µM ([2]; test compound 10^−7 M) [%] | inhibition at 0.01 µM ([2]; test compound 10^−8 M) [%] | inhibition at 10 µM [2] [%] | SMILES
6 | 88.3 | 102 | 102 | 100 | 101.1 | 100.5 | 99.7 | – | – | – | – | – | – | – | – | – | – | Cc1ccn(-c2ccc(C(=O)N[C@@H]3CCC(F)(F)C[C@@H]3C(=O)N3CCc4c(-c5ncc[nH]5)nc5ccccc5c43)cc2)n1 [Example 1, N-[(1R,2S)-4,4-difluoro-2-{[4-(1H-imidazol-2-yl)-2,3-dihydro-1H-pyrrolo[3,2-c]quinolin-1-yl]carbonyl}cyclohexyl]-4-(3-methyl-1H-pyrazol-1-yl)benzamide]
7 | – | – | – | – | – | 101.4 | – | 86.8 | 102.5 | 102.9 | 100.5 | 101.7 | 100.3 | – | – | – | – | Cc1ccn(-c2ccc(C(=O)N[C@@H]3CCC(F)(F)C[C@@H]3C(=O)N3CCc4c(-c5ncc[nH]5)nc5ccccc5c43)cc2)n1.Cl [Example 3, N-[(1R,2S)-4,4-difluoro-2-{(4-(1H-imidazol-2-yl)-2,3-dihydro-1H-pyrrolo[3,2-c]quinolin-1-yl]carbonyl}cyclohexyl]-4-(3-methyl-1H-pyrazol-1-yl)benzamide hydrochloride]
